Tests used:
[1] = target: T1, L-aspartate-α-decarboxylase (Escherichia coli, UniProt P0A790); assay: Temperature study, 37° C. (Example 9); format: biochemical, E. coli K12; conditions: for concentration in supernatant fluid / percent remaining: 1.0M, 100 g/l cells
T1 construct: expressed in transfected cells; host or cells: E. coli W3110 transformed with pIF309 = strain NS3291 (ATCC 98675), whole cells
Description: 133.1 g (1 mol) of D/L-aspartic acid was dissolved in deionized H2 O and the pH was adjusted to 7.0 with 10N NaOH, approximately 100 ml. Cells, freshly thawed from -80° C., were added to achieve a final concentration of 100 g/l. Three 2 L fermentors were each charged with 963 ml of substrate solution and 137 ml of cells and then heated to 37° C. and 45° C. while mixing at 300 rpm or heated to 50° C. while mixing at 450 rpm. Samples, approximately 1 ml, were removed over time and pH adjusted to 7.0 with either NaOH or HCl. After centrifugation to remove cells, the supernatant fluid was analyzed for both D- and L-aspartic acid.

[2] = target: T1, L-aspartate-α-decarboxylase; assay: NH4OH neutralized 1.0M D/L-aspartate substrate (Example 7); format: biochemical, E. coli K12; conditions: for concentration in supernatant fluid / percent remaining: 1.0M, NH4OH neutralized, 37° C.
Description: Cells were stored frozen at -80° C. 133.1 g (1 mol) D/L-aspartic acid was dissolved in approximately 600 ml deionized H2 O and adjusted to a pH of about 7 with concentrated NH4 OH. The final volume of substrate was brought to 963 ml to which was added 137 ml cells, freshly thawed. The mixture was placed in the 2 L fermentor and the temperature adjusted to 37° C. No automatic pH control was used, however, the pH was monitored as samples were removed and the pH adjusted with 50% NH4 OH. Samples, approximately 1 ml, were removed periodically, centrifuged, and the supernatant fluid was stored frozen prior to diluting and HPLC analysis.

T1 sequence (P0A790 25-126): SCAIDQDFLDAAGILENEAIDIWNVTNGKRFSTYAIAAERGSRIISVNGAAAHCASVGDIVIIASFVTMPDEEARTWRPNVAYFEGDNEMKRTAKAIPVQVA
T1 sequence (P0A790 1-24): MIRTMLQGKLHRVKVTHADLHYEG

N[C@H](CC(=O)O)C(=O)O [D-Asp, D-aspartic acid]
stability of the isomer [1]: stable
concentration in supernatant fluid ([1]; 0.0000 hr): 55.000 mg/mL
concentration in supernatant fluid ([1]; 2.5000 hr): 54.310 mg/mL
percent remaining ([1]; 2.5000 hr): 98.745%
concentration in supernatant fluid ([1]; 4.0000 hr): 54.440 mg/mL
percent remaining ([1]; 4.0000 hr): 98.982%
concentration in supernatant fluid ([1]; 6.0000 hr): 54.470 mg/mL
percent remaining ([1]; 6.0000 hr): 99.036%
concentration in supernatant fluid ([1]; 8.0000 hr): 54.760 mg/mL
percent remaining ([1]; 8.0000 hr): 99.564%
concentration in supernatant fluid ([1]; 10.000 hr): 55.840 mg/mL
percent remaining ([1]; 10.000 hr): 101.53%
concentration in supernatant fluid ([1]; 12.000 hr): 56.760 mg/mL
percent remaining ([1]; 12.000 hr): 103.20%
concentration in supernatant fluid ([1]; 20.000 hr): 55.460 mg/mL
percent remaining ([1]; 20.000 hr): 100.84%
concentration in supernatant fluid ([1]; 24.000 hr): 55.390 mg/mL
percent remaining ([1]; 24.000 hr): 100.71%
concentration in supernatant fluid ([1]; 29.000 hr): 53.990 mg/mL
percent remaining ([1]; 29.000 hr): 98.164%
concentration in supernatant fluid ([1]; 34.000 hr): 53.440 mg/mL
percent remaining ([1]; 34.000 hr): 97.164%
concentration in supernatant fluid ([1]; 44.000 hr): 52.960 mg/mL
percent remaining ([1]; 44.000 hr): 96.291%
concentration in supernatant fluid ([1]; 48.000 hr): 52.940 mg/mL
percent remaining ([1]; 48.000 hr): 96.255%
concentration in supernatant fluid ([1]; 68.000 hr): 49.940 mg/mL
percent remaining ([1]; 68.000 hr): 90.800%
concentration in supernatant fluid ([1]; 92.000 hr): 50.670 mg/mL
percent remaining ([1]; 92.000 hr): 92.127%
concentration in supernatant fluid ([2]; 0.0000 hr): 55.260 mg/mL
concentration in supernatant fluid ([2]; 3.0000 hr): 54.670 mg/mL
percent remaining ([2]; 3.0000 hr): 98.932%
concentration in supernatant fluid ([2]; 6.0000 hr): 49.100 mg/mL
percent remaining ([2]; 6.0000 hr): 88.853%
concentration in supernatant fluid ([2]; 9.0000 hr): 47.810 mg/mL
percent remaining ([2]; 9.0000 hr): 86.518%
concentration in supernatant fluid ([2]; 19.000 hr): 43.490 mg/mL
percent remaining ([2]; 19.000 hr): 78.701%
concentration in supernatant fluid ([2]; 23.500 hr): 39.120 mg/mL
percent remaining ([2]; 23.500 hr): 70.793%
concentration in supernatant fluid ([2]; 28.000 hr): 36.290 mg/mL
percent remaining ([2]; 28.000 hr): 65.671%
concentration in supernatant fluid ([2]; 32.500 hr): 33.540 mg/mL
percent remaining ([2]; 32.500 hr): 60.695%
concentration in supernatant fluid ([2]; 43.000 hr): 30.370 mg/mL
percent remaining ([2]; 43.000 hr): 54.958%
concentration in supernatant fluid ([2]; 49.000 hr): 21.580 mg/mL
percent remaining ([2]; 49.000 hr): 39.052%

N[C@@H](CC(=O)O)C(=O)O [L-Asp, L-aspartic acid]
concentration in supernatant fluid ([1]; 0.0000 hr): 53.700 mg/mL
concentration in supernatant fluid ([1]; 2.5000 hr): 48.940 mg/mL
percent remaining ([1]; 2.5000 hr): 91.136%
concentration in supernatant fluid ([1]; 4.0000 hr): 47.600 mg/mL
percent remaining ([1]; 4.0000 hr): 88.641%
concentration in supernatant fluid ([1]; 6.0000 hr): 46.170 mg/mL
percent remaining ([1]; 6.0000 hr): 85.978%
concentration in supernatant fluid ([1]; 8.0000 hr): 44.810 mg/mL
percent remaining ([1]; 8.0000 hr): 83.445%
concentration in supernatant fluid ([1]; 10.000 hr): 42.120 mg/mL
percent remaining ([1]; 10.000 hr): 78.436%
concentration in supernatant fluid ([1]; 12.000 hr): 42.120 mg/mL
percent remaining ([1]; 12.000 hr): 78.462%
concentration in supernatant fluid ([1]; 20.000 hr): 35.960 mg/mL
percent remaining ([1]; 20.000 hr): 66.965%
concentration in supernatant fluid ([1]; 24.000 hr): 34.840 mg/mL
percent remaining ([1]; 24.000 hr): 64.879%
concentration in supernatant fluid ([1]; 29.000 hr): 28.040 mg/mL
percent remaining ([1]; 29.000 hr): 54.078%
concentration in supernatant fluid ([1]; 34.000 hr): 28.040 mg/mL
percent remaining ([1]; 34.000 hr): 54.078%
concentration in supernatant fluid ([1]; 44.000 hr): 21.670 mg/mL
percent remaining ([1]; 44.000 hr): 40.354%
concentration in supernatant fluid ([1]; 48.000 hr): 18.440 mg/mL
percent remaining ([1]; 48.000 hr): 34.339%
concentration in supernatant fluid ([1]; 68.000 hr): 5.9700 mg/mL
percent remaining ([1]; 68.000 hr): 11.117%
concentration in supernatant fluid ([1]; 92.000 hr): 0.915 mg/mL
percent remaining ([1]; 92.000 hr): 1.7039%
consumption of the isomer ([1]; by 99.75 hours): almost completely consumed
concentration in supernatant fluid ([2]; 0.0000 hr): 55.740 mg/mL
concentration in supernatant fluid ([2]; 3.0000 hr): 53.380 mg/mL
percent remaining ([2]; 3.0000 hr): 95.766%
concentration in supernatant fluid ([2]; 6.0000 hr): 56.370 mg/mL
percent remaining ([2]; 6.0000 hr): 101.13%
concentration in supernatant fluid ([2]; 9.0000 hr): 56.680 mg/mL
percent remaining ([2]; 9.0000 hr): 101.69%
concentration in supernatant fluid ([2]; 19.000 hr): 59.270 mg/mL
percent remaining ([2]; 19.000 hr): 106.33%
concentration in supernatant fluid ([2]; 23.500 hr): 54.930 mg/mL
percent remaining ([2]; 23.500 hr): 98.547%
concentration in supernatant fluid ([2]; 28.000 hr): 52.620 mg/mL
percent remaining ([2]; 28.000 hr): 94.403%
concentration in supernatant fluid ([2]; 32.500 hr): 50.900 mg/mL
percent remaining ([2]; 32.500 hr): 91.317%
concentration in supernatant fluid ([2]; 43.000 hr): 53.520 mg/mL
percent remaining ([2]; 43.000 hr): 96.017%
percent remaining ([2]; 49.000 hr): 91.676%
rate of L-Asp utilization ([2]; NH4+ salt as compared to the Na+ salt): slower

From patent US5834259A, “Process and composition for preparing D-aspartic acid” (Monsanto Company, priority 1996, dated 1998)
